Key:
[1] = Small Intestine Homogenate Assay (mouse); type: in vitro ADME, CD-1 mice; details: mouse SIH, 100 uM, pH 7.5
Procedure: (§1) Small Intestine Homogenate Assay
(§2) To determine the stability of a compound of formula I to enzymatic hydrolysis in the intestine, crude homogenates of small intestinal epithelial cells are prepared from sections of the upper small intestine from CD-1 mice, beagle dogs, cynomolgus monkeys, and humans. Mouse and dog homogenates are prepared from freshly collected tissue, while monkey and human homogenates are prepared from previously frozen tissues. Cells are gently scraped from intestinal segments, pooled, and homogenized in 50 mM acetate buffer using Polytron (PT-10-85). Protein concentrations are determined by standard spectrophotometric techniques. The prepared homogenates are store at −70° C. before using.
(§3) The hydrolytic rates of a compound of formula I in small intestinal homogenates (SIH) is determined by incubating a compound of formula I (100 uM) with SIH (2.5-5 mg/mL of total protein) in acetate at pH 7.5 for up to 6 hours. Concentrations of gemcitabine released via hydrolysis is determined by LC/MS analysis after the reaction is quenched with acetonitrile. Hydrolysis rates are calculated at 30 minutes in screening experiments and from the slope of the linear portion of the hydrolysis vs. time curves in characterization studies of a compound of formula I.

[2] = pH Chemical Stability Assay; type: physicochemical; details: pH range 1 to 8, after four hours, 40° C., 100 mcg/mL
Procedure: pH Chemical Stability Assay
The pH chemical stability is assessed using a semi-automated HPLC technique. Samples of compound of formula I are prepared at 100 mcg/mL in five buffers representing the pH range throughout the gastrointestinal tract (pH1-pH8). Samples are loaded onto an HPLC autosampler incubated at 40° C. Samples are repeatedly injected on the HPLC at hourly intervals for up to 24 hours with an HPLC column that separates a compound of formula I from gemcitabine. The peak area of the compound of formula I is monitored by UV detection over time and are compared to initial peak areas to determine stability.

[3] = Liver S9 Hydrolysis Assay (mouse); type: in vitro ADME, CD-1 mouse; details: mouse liver S9, 10 uM, pH 8.0
Procedure: (§4) Liver S9 Hydrolysis Assay
(§5) Hydrolysis of a compound of formula I by liver enzymes is determined by liver hydrolysis assay. Liver homogenates are prepared from CD-1 mouse, beagle dog, cynomolgus monkey, and human livers. Liver tissues are cut into small pieces using scissors, then, homogenized in 50 mM acetate buffer using Polytron (PT-10-85) for 1 min. Post-mitochondrial (S9) fractions are prepared from each by ultracentrifugation at 9,000×g at 4° C. for 10 min. Mouse, dog and monkey liver S9 fractions are prepared from freshly collected tissues, while human liver S9 are prepared from previously frozen tissue. After centrifugation, the supernatant is collected and protein concentrations are determined by standard spectrophotometric techniques. The prepared S9 fractions are store at −70° C. before using.
(§6) The hydrolytic rates of a compound of formula I in liver S9 is determined by incubating compound (10 uM) with S9 (2 mg/mL of total protein) in phosphate buffered saline at pH 8.0 for up to 6 hours. Concentrations of gemcitabine released via hydrolysis are determined by LC/MS analysis after the reaction is quenched with acetonitrile. Hydrolysis rates are calculated at 30 minutes in screening experiments and from the slope of the linear portion of the hydrolysis vs. time curves in characterization studies of a compound of formula I.

[4] = Liver S9 Hydrolysis Assay (dog); type: in vitro ADME, beagle dog; details: dog liver S9, 10 uM, pH 8.0
Procedure: as §4, §5, §6

[5] = Monkey Pharmacokinetics Assay; type: in vivo; details: administered intravenously to cynomolgus monkeys
Procedure: Monkey Pharmacokinetics Assay
The pharmacokinetic profiles of gemcitabine and a compound of formula I, are assessed in cynomolgus monkeys following oral and intravenous administration in a crossover design. Compounds are administered at doses selected to contain approximately 10 mg/kg of gemcitabine. Blood samples are collected into EDTA-treated tubes containing tetrahydrouridine (0.5 mM final concentration in blood) at designated intervals for up to 48 hours. Animals are pretreated with ranitidine (intravenous, 5 mg/kg) in the oral dosing periods. Plasma is isolated by centrifugation and frozen prior to analysis. Plasma concentrations of gemcitabine and a compound of formula I are determined by LC/MS/MS analysis. Pharmacokinetic parameters are determined using WinNonlin software (Pharsight Corp., Mountain View, Calif.).

[6] = Small Intestine Homogenate Assay (dog); type: in vitro ADME, beagle dogs; details: dog SIH, 100 uM, pH 7.5
Procedure: as §1, §2, §3

[7] = test system: HCT-116 colon tumor cells; experiment: In Vivo Assay, HCT-116 colon tumor xenograft; details: oral gavage, HCT-116 xenograft in female nude mice
Procedure: HCT-116 colon tumor cells are grown in vitro under standard tissue culture conditions, harvested, washed, and 5×10^6 cells (1:1 suspension in Matrigel, Collaborative Biomedical Products, Inc) are injected subcutaneously in the rear flank of female nude mice (Charles River, CD1 nu/nu, 24-27 g, irradiated with 450 Rads within 24 h of implantation). Tumors are allowed to grow to ˜100 mm^3 before initiation of therapy. Vehicle control, a compound of formula I or gemcitabine-HCl at various dose levels are administered to the mice by oral gavage (10 ml/kg volume) at the times indicated in the individual experiments. Compounds are administered either daily for fourteen days, every other day for a total of seven doses, or every third day for a total of four doses. […] Tumor size is determined by caliper measurements and tumor volume (mm^3) is estimated from the formula l×w^2×0.536, where l is the larger and w is the smaller of perpendicular diameters. All data (tumor measurements and animal weights) are captured twice-weekly beginning with the start of therapy and analyzed using a computer based tumor measurement system.

[8] = Liver S9 Hydrolysis Assay (monkey); type: in vitro ADME, cynomolgus monkey
Procedure: as §4, §5, §6

[9] = Small Intestine Homogenate Assay (monkey); type: in vitro ADME, cynomolgus monkeys; details: monkey SIH
Procedure: as §1, §2, §3

[10] = 4-Day Mouse Screen (oral toxicity); type: in vivo; details: oral gavage once daily for 4 days, molar equivalent of 8-mg/kg gemcitabine, female CD-1 mice
Procedure: To evaluate the toxicity produced by orally administered compound of formula I when administered daily to female […] mice for 4 days, the gastrointestinal toxicity profiles of a compound of formula I is compared with the historical results for gastrointestinal toxicity when gemcitabine is administered orally at 8 mg/kg in a 4-day mouse study.
Female CD-1 mice 5-8 weeks of age are dosed with a compound of formula I by oral gavage. A dose level is chosen to approximate a molar equivalent of 8-mg/kg gemcitabine. A dose volume of 10 mL/kg is used and doses are administered once daily on 4 consecutive days. Necropsy is performed approximately 5-8 hours following the 4th dose.
Clinical signs, clinical chemistry, gross pathology, and limited histopathology (ileum, jejunum, and liver) are evaluated.

[11] = 14 Day Mouse Study (oral toxicity and exposure); type: in vivo; details: 14 days oral gavage, CD-1 mice
Procedure: A 14-Day Mouse Study is conducted to evaluate whether a compound of formula I produces adverse effects in mice following 14 days of oral gavage dosing and to determine the plasma concentrations of a compound of formula I and its metabolites gemcitabine HCl and deoxydifluorouridine after 1 or 14 doses.
Male and female CD-1 mice 9-12 weeks of age are dosed with a compound of formula I […] by oral gavage. A range of doses is selected in an effort to determine a maximum tolerated dose and dose limiting toxicity. A dose volume of 10 mL/kg is used and doses are administered once daily.
Clinical signs, body weight, food consumption, hematology, clinical chemistry, plasma concentrations of a compound of formula I and metabolites gemcitabine HCl and deoxydifluorouridine, and pathology (including gross pathology, organ weights, and histopathology) are evaluated.

[12] = Small Intestine Homogenate Assay (human); type: in vitro ADME, humans; details: human SIH
Procedure: as §1, §2, §3

[13] = 7-Day Dog Study (oral toxicity); type: in vivo; details: oral capsule once daily for 7 days, beagle dogs
Procedure: To evaluate the toxicity profile of a compound of formula I when administered to Beagle dogs for 7 days, and to determine the plasma concentrations of a compound of formula I and metabolites gemcitabine HCl and deoxydifluorouridine after 1 or 7 doses, a 7-day dog study is conducted.
Male and female beagle dogs 6-48 months of age are dosed orally via capsule with a compound of formula I. A range of doses is selected in an effort to determine a maximum tolerated dose and dose limiting toxicity. A dose volume of 1 mL/kg is used and doses aree administered once daily.
Clinical signs, body weight, food consumption, body temperature, hematology (including coagulation), clinical chemistry, urinalysis, plasma concentrations of the compound of Example I and its metabolites gemcitabine HCl and deoxydifluorouridine, and pathology (including gross pathology, organ weights, and histopathology) were evaluated.

[14] = Liver S9 Hydrolysis Assay (human); type: in vitro ADME
Procedure: as §4, §5, §6

Mouse Pharmacokinetics = type: in vivo, CD-1 mice
Procedure: The pharmacokinetic profiles of gemcitabine and a compound of formula I, are assessed in male CD-1 mice following oral administration at doses selected to contain approximately 10 mg/kg of gemcitabine. Designated animals (n=3/time point/compound) are sacrificed at 0.08, 0.25, 0.5, 1, 2, and 6 hours after dosing, and systemic blood samples are collected into EDTA-treated tubes containing tetrahydrouridine (0.5 mM final concentration in blood) to inhibit further metabolism of gemcitabine. An additional 3 animals are sacrificed at 0.08 hours for collection of hepatic portal blood. Plasma is isolated by centrifugation and frozen prior to analysis. Plasma concentrations of gemcitabine and prodrugs are determined by LC/MS/MS analysis. Pharmacokinetic parameters are calculated using WinNonlin software (Pharsight Corp., Mountain View, Calif.). Pharmacokinetic parameters of each prodrug are compared to those determined from administration of oral gemcitabine hydrochloride in a similar study design.

[15] = result of first pass metabolism; cited from earlier work
[16] = cited from earlier work

CCCC(CCC)C(=O)Nc1ccn([C@@H]2O[C@H](CO)[C@@H](O)C2(F)F)c(=O)n1 [Example 1, 1-(2,2-difluoro-2-deoxy-β-D-ribofuranosyl)-4-(2-propyl-1-oxopentyl)aminopyrimidin-2-one]
rate of hydrolysis in small intestine homogenate [1]: slow rate of hydrolysis | compound degraded to gemcitabine [2]: Less than 25% | hydrolysis in liver S9 [3]: hydrolyzed | hydrolysis in liver S9 [4]: hydrolyzed | hydrolysis in vivo to release gemcitabine [5]: extensively hydrolyzed | rate of hydrolysis in small intestine homogenate [6]: slow rate of hydrolysis | antitumor efficacy versus equivalent dose of gemcitabine-HCl [7]: comparable | overall toxicity versus equivalent amount of gemcitabine-HCl [7]: less overall toxicity | hydrolysis in liver S9 ([8]; monkey liver S9, 10 uM, pH 8.0): hydrolyzed | total compound converted to gemcitabine ([8]; monkey liver S9, 6 hour incubation): approximately 3.5% | rate of hydrolysis in small intestine homogenate ([9]; 100 uM, pH 7.5): slow rate of hydrolysis | total compound converted to gemcitabine ([9]; 6 hour incubation): less than 3% | severity of atrophic intestinal changes or enteropathy versus gemcitabine HCl [10]: significant reduction | enteropathy versus gemcitabine HCl on a molar equivalent basis [11]: less enteropathy | systemic exposure to gemcitabine HCl versus gemcitabine HCl on a molar equivalent basis [11]: approximately twice | rate of hydrolysis in small intestine homogenate ([12]; 100 uM, pH 7.5): slow rate of hydrolysis | total compound converted to gemcitabine ([12]; 6 hour incubation): less than 3% | hematotoxicity and the other toxicities, including GI toxicity [13]: consistent with what has been previously described for parenteral gemcitabine | hydrolysis in liver S9 ([14]; human liver S9, 10 uM, pH 8.0): hydrolyzed | total compound converted to gemcitabine ([14]; human liver S9, 6 hour incubation): approximately 3.5% | concentration of intact prodrug in hepatic portal plasma (Mouse Pharmacokinetics; 0.08 hours after oral dosing, CD-1 mice): relatively high concentrations | hydrolysis in vivo to release gemcitabine (Mouse Pharmacokinetics; administered orally to CD-1 mice, approx. 10 mg/kg of gemcitabine): extensively hydrolyzed | plasma exposure to gemcitabine compared to direct oral administration of gemcitabine hydrochloride (Mouse Pharmacokinetics; oral, CD-1 mice): increased

Nc1ccn([C@@H]2O[C@H](CO)[C@@H](O)C2(F)F)c(=O)n1 [gemcitabine, 2′,2′-difluoro-2′-deoxycytidine]
oral bioavailability [15]: poor oral bioavailability | death or gastrointestinal toxicity ([16]; comparable exposures via intravenous dosing, previous mouse studies): did not result in death or gastrointestinal toxicity | intestinal lesions ([16]; single oral (gavage) dose of 167, 333, or 500 mg/kg, mice): moderate-to-marked loss of mucosal epithelium (atrophic enteropathy)

Reference: US7691827B2, “Amide prodrug of gemcitabine, compositions and use thereof” (Eli Lilly and Company, priority 2004, dated 2010)
